Active and inactive are the calls of the source. The calls are words filed in the database; no cut-off is given here.
Assays:
HEK293 = experiment: Effect on Tet-induced Flag-tagged mouse TRPM7 expression in HEK293 cells; assay type: functional, cell-based; conditions: Homo sapiens
[1] = biological target: Transient receptor potential cation channel subfamily M member 7 (Mus musculus) (UniProt Q923J1); experiment: Inhibition of Tet-induced Flag-tagged mouse TRPM7 expressed in HEK293 cells assessed as inhibition of channel-mediated cell death in presence of Mg2+ incubated for 24 to 48 hrs by propidium iodide uptake assay; assay type: cell-based; set-up: concentration or dose not given beside the values
Transient receptor potential cation channel subfamily M member 7 (Mus musculus), sequence (Q923J1 whole entry): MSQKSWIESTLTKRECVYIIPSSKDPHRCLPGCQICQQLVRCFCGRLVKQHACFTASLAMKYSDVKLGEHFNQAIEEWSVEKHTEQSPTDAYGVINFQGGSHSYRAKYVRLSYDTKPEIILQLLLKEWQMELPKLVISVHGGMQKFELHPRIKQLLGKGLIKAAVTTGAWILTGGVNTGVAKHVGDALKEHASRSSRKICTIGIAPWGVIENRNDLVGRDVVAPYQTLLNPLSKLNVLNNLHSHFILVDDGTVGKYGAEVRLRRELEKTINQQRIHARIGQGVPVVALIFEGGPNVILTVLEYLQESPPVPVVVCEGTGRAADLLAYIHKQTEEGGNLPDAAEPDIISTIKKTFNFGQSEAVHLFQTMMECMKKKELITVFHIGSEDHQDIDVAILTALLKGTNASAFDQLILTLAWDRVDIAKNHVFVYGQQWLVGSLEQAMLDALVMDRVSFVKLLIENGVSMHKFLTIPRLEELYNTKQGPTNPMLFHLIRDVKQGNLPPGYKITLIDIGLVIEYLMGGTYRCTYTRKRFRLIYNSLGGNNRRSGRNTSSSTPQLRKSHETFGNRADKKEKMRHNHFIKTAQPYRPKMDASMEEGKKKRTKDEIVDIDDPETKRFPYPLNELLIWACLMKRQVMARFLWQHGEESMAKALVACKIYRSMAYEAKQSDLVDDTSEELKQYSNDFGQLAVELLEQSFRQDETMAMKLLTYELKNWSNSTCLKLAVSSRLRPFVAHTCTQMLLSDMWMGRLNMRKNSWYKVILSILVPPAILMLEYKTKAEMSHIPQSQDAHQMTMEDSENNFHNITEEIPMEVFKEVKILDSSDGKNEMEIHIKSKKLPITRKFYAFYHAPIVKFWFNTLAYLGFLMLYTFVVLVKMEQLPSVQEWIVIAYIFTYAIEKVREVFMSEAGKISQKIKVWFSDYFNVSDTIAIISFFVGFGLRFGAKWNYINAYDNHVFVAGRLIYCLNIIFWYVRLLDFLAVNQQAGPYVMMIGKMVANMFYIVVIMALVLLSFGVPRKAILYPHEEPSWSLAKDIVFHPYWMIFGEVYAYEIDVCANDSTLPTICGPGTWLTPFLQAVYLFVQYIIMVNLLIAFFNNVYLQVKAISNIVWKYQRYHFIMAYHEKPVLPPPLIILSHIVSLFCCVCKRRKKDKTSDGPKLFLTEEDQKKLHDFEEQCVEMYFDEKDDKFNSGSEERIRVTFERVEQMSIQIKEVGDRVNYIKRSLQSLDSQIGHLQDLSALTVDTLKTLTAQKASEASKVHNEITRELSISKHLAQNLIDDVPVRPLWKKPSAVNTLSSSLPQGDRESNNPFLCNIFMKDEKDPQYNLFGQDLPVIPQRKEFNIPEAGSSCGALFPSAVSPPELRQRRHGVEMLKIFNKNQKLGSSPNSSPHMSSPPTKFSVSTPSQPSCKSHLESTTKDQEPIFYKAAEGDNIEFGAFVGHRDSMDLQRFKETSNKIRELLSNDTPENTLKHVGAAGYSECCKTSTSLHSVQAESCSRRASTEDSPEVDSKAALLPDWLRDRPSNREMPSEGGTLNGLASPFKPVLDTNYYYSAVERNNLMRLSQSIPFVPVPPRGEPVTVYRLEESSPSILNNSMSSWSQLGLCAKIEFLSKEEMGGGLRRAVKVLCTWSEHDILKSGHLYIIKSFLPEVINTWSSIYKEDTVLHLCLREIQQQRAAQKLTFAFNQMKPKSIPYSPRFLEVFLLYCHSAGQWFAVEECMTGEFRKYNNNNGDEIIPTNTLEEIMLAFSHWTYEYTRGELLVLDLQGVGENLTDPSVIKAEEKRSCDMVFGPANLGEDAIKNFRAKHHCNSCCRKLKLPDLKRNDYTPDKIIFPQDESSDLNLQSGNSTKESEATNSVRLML

[2] = biological target: Transient receptor potential cation channel subfamily M member 7 (Mus musculus) (UniProt Q923J1); experiment: Inhibition of TRPM7 in mouse mouse primary cortical neurons exposed to 2 hrs oxygen glucose deprivation condition assessed as reduction in TRPM7-mediated anoxic cell death measured after 20 hrs by propidium iodide uptake assay; assay type: cell-based; conditions: Cerebral cortex neuron
[3] = biological target: Transient receptor potential cation channel subfamily M member 7 (Rattus norvegicus) (UniProt Q925B3); experiment: Inhibition of TRPM7 in rat H9C2 cells assessed as reduction in channel currents at 0.3 to 30 uM by whole cell patch clamp assay; assay type: cell-based
Transient receptor potential cation channel subfamily M member 7 (Rattus norvegicus), sequence (Q925B3 whole entry): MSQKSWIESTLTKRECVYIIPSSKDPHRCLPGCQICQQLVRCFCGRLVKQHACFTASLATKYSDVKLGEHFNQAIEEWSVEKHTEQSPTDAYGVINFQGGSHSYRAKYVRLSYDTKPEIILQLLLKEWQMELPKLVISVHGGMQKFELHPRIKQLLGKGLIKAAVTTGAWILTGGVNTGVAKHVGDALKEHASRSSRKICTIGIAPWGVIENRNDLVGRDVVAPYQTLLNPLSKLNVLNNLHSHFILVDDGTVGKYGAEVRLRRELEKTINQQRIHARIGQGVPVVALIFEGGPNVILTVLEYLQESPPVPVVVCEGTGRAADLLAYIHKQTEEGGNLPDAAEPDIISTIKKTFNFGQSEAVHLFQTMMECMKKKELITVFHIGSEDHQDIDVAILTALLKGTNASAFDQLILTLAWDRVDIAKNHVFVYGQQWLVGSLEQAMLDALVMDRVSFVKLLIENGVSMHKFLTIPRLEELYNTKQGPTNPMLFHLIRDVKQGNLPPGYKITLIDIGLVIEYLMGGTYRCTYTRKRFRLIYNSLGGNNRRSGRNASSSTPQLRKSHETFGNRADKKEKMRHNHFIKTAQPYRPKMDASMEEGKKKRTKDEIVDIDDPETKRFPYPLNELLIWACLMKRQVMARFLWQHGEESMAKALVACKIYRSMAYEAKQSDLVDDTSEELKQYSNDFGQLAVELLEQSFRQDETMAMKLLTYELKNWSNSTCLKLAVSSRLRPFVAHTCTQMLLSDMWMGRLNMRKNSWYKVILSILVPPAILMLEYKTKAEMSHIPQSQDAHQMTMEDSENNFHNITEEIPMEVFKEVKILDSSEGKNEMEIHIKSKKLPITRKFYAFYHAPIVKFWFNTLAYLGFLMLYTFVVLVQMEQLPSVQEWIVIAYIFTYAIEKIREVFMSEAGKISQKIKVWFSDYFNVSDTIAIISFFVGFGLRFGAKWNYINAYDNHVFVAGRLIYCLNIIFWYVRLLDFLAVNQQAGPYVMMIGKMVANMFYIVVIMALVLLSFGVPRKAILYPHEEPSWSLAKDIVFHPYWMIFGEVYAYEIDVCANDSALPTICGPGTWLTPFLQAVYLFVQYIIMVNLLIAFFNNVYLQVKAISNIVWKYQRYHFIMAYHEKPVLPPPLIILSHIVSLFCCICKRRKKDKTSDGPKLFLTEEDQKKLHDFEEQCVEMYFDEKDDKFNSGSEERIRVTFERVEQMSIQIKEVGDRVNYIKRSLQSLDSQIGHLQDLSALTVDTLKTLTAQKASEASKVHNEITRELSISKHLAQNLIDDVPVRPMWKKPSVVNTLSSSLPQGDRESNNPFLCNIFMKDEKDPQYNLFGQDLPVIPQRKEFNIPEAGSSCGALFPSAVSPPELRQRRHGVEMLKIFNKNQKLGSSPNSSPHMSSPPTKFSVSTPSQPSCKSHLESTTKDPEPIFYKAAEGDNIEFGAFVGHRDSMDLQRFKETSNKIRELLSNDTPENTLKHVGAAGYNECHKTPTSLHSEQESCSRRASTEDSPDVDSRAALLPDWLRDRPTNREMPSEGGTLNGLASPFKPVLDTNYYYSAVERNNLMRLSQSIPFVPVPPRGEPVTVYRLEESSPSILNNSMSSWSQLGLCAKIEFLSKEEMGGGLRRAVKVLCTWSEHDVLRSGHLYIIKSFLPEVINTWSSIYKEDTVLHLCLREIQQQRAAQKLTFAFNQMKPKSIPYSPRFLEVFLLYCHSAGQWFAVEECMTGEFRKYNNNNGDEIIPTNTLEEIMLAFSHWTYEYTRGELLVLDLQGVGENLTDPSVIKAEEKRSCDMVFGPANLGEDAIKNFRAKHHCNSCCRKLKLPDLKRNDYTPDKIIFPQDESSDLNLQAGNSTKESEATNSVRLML

[4] = biological target: Transient receptor potential cation channel subfamily M member 7 (Mus musculus) (UniProt Q923J1); experiment: Inhibition of Tet-induced Flag-tagged mouse TRPM7 expressed in HEK293 cells assessed as reduction in channel currents at 0.3 to 30 uM by whole cell patch clamp assay; assay type: cell-based
[5] = biological target: Transient receptor potential cation channel subfamily M member 7 (Mus musculus) (UniProt Q923J1); experiment: Inhibition of TRPM7 in mouse primary neuronal cells exposed to oxygen glucose deprivation condition for 1 to 3 hrs assessed as reduction in TRPM7-mediated anoxic cell death dosed before oxygen glucose deprivation condition by propidium iodide uptake assay; conditions: Primary neuron
[6] = biological target: Transient receptor potential cation channel subfamily M member 7 (Mus musculus) (UniProt Q923J1); experiment: Inhibition of TRPM7 in mouse primary neuronal cells exposed to oxygen glucose deprivation condition for 1 to 3 hrs assessed as reduction in TRPM7-mediated anoxic cell death dosed after oxygen glucose deprivation condition by propidium iodide uptake assay; conditions: Primary neuron
[7] = Inhibition of cell proliferation of human WERI cells at 10 uM incubated for 48 to 96 hrs; assay type: functional

Compound	inhibition ([1]; concentration not given here) [%]	further results
COC(=O)C1=C(C)NC(C)=C(C(=O)OCCN(C)Cc2ccccc2)C1c1cccc([N+](=O)[O-])c1 (stereo not drawn)	–	Activity (HEK293): inactive
C[n+]1cc2c3c(ccc2c2ccc4cc5c(cc4c21)OCO5)OCO3	–	Activity (HEK293): inactive
COc1ccccc1N1CCN(CC(O)COc2cccc3ccccc23)CC1 (stereo not drawn)	–	inhibition [1]: Dose-dependent effect; Activity (HEK293): inactive
COc1cc2c(cc1OC)-c1c/c(=N\c3c(C)cc(C)cc3C)n(C)c(=O)n1CC2	–	inhibition [1]: Dose-dependent effect; Activity (HEK293): inactive
COc1ccc(OC)c(SCc2nnc(-c3ccc([N+](=O)[O-])c(C)c3)o2)c1	80	inhibition [2]: Active; inhibition [3]: Active; inhibition [4]: Active; inhibition [5]: Active; inhibition [6]: Active; inhibition at 10 µM [7]: > 20%
O=C(O)c1cc(=O)cc(C(=O)O)[nH]1	–	Activity (HEK293): inactive
CCN(CC)CCCC(C)Nc1c2ccc(Cl)cc2nc2ccc(OC)cc12 (stereo not drawn)	–	Activity (HEK293): inactive
Ic1ccccc1CN[C@@H]1C2CCN(CC2)[C@@H]1C(c1ccccc1)c1ccccc1 (relative stereo)	–	inhibition [1]: Dose-dependent effect; Activity (HEK293): inactive
O=C1c2c(O)ccc(O)c2C(=O)c2c(NCCNCCO)ccc(NCCNCCO)c21	–	Activity (HEK293): inactive
COc1cccc(OC)c1OCCNCC1CSc2ccccc2O1 (stereo not drawn)	–	inhibition [1]: Dose-dependent effect; Activity (HEK293): inactive
O=[N+]([O-])c1cccc(-c2ccc(/C=N/NC(=S)Nc3cccc(F)c3)o2)c1	30	–
COc1ccc(-c2[nH]ncc2CN2CCN(c3ccc(F)cc3)CC2)cc1	< 30	–
Cc1onc(-c2c(Cl)cccc2Cl)c1/C=C1/C(=O)Nc2ccccc21	30	–
O=C(O/N=C(\Cn1nnc(N2CCCCC2)n1)c1ccc(Cl)cc1)c1ccccc1Cl	< 30	–
CC(C)(C)[C@H](CO)/N=C/c1cccc(/C=N/[C@H](CO)C(C)(C)C)n1	< 30	–
COc1ccc(C[C@H]2NC[C@H](O)[C@H]2OC(C)=O)cc1	–	inhibition [1]: Dose-dependent effect
CC(C)(C)c1ccc(OCc2ncc(S(=O)(=O)c3ccccc3)c(N)n2)cc1	< 30	–
C[C@H]1O[C@@H](O[C@H]2[C@@H](O)C[C@H](O[C@H]3[C@@H](O)C[C@H](O[C@H]4CC[C@@]5(C)[C@H](CC[C@@H]6[C@@H]5C[C@@H](O)[C@]5(C)[C@@H](C7=CC(=O)OC7)CC[C@]65O)C4)O[C@@H]3C)O[C@@H]2C)C[C@H](O)[C@@H]1O	–	inhibition [1]: Dose-dependent effect
COc1ccc(/C=N/NS(=O)(=O)c2ccc(Cl)cc2)cc1OC	80	–
CSc1ncc2c(n1)CC(C)(C)C/C2=N/OC(=O)c1ccc(Cl)cc1	< 30	–
O=C(CSc1nccc(-c2cc(-c3ccc(Cl)cc3Cl)no2)n1)Nc1ccc(Cl)cc1	30	–
Cc1ccc(C(=O)Nc2cccnc2Oc2ccc(C(C)(C)C)cc2)cc1C	60	–

Compound	inhibition ([1]; concentration not given here) [%]	further results
Cc1onc(-c2c(Cl)cccc2Cl)c1C(=O)Oc1ccccc1	< 30	–
COc1ccccc1N1CCN(Cc2c[nH]c(-c3ccccc3)n2)CC1	< 30	–
Cc1cccn2cc(-c3ccccc3Cl)nc12	30	–
CS/C(=N\c1ccc(C)cc1)Nc1ccc(C)cc1	50	–
O=c1[nH]c2c(Cl)c(Cl)ccc2c(O)c1-c1ccccc1	60	–
CNC(=O)c1cc([N+](=O)[O-])cc2c1-c1ccc([N+](=O)[O-])cc1C2=O	< 30	–
CCOC(=O)c1cc(C)nn1C(=O)c1ccccc1Cl	30	–
Fc1ccc(N2CCN(Cc3c[nH]c(-c4ccccc4)n3)CC2)cc1	70	–
CN(C)c1cc(-c2cc(Cl)sc2Cl)oc(=O)c1Cl	< 30	–
COc1ccc2nnc(-c3ccc(C(F)(F)F)cc3)n2n1	< 30	–
CN(C)c1cccc(N(C)C)c1CNC(=O)Nc1ccccc1	< 30	–
CCn1cnc2c(Nc3cccc(Cl)c3)nc(N[C@@H]3CCCC[C@@H]3N)nc21 (relative stereo)	–	inhibition [1]: Dose-dependent effect
C/C(=N\Nc1c(C)cccc1Cl)c1ccc(Oc2ncc([N+](=O)[O-])s2)cc1	< 30	–
COc1cc2c(cc1OCC(=O)Nc1ccc(C)cc1)C=CC(C)(C)O2	30	–
COC(=O)C(O)(c1ccc(NC(=O)Nc2ccc(Cl)cc2)cc1)C(F)(F)F (stereo not drawn)	50	–
Cc1nc(-c2ccc(C(F)(F)F)cc2)nc(O)c1Cl	< 30	–
Cc1csc2ncnc(N3CCN(C(=O)Nc4ccc(OC(F)(F)F)cc4)CC3)c12	50	–
CN(/N=C/Cc1nnnn1-c1ccc(Cl)cc1)c1ccccc1	< 30	–
CCc1ccc2[nH]c(C(=O)N(C)c3ccc(F)cc3F)cc2c1	< 30	–
O=[N+]([O-])c1cccc(-c2ccc(/C=N/NC(=S)NCc3ccco3)o2)c1	< 30	–
CCCCCc1ccc(S(=O)(=O)Nc2ccccc2C(=O)NCC2CC2)cc1	60	–

From ChEMBL document CHEMBL3727350, “Agents and methods for treating ischemic and other diseases” (2014)
